These results are taken from publication PMC4187030, “Effect of cyclodextrin complexation on phenylpropanoids’ solubility and antioxidant activity” (Beilstein Journal of Organic Chemistry, 2014).

Where two headings read alike, the source gives them in different places.

Data set [1] is described as follows: Phase solubility studies, CRYSMEB. The method, then:
(§1) Phase solubility studies were carried out according to the method described by Higuchi and Connors. Excess amount of PP was added to 1 mL of CD solution at different concentrations ranging from 0 to 10 mM. The mixtures were shaken at 25 °C for 24 h then filtered through a 0.45 μm membrane filter. The concentration of PP in the filtrate was determined spectrophotometrically at the maximum wavelength corresponding to each PP. Phase solubility diagrams were obtained by plotting the solubility of PP as a function of CD concentration. Kf value of CD/PP inclusion complex was calculated from the linear segment of the phase–solubility diagrams using the following equation: […]
(§2) where S0 is the intrinsic solubility of PP in the absence of CD and the Slope is the slope of the phase–solubility profile. The solubilizing potential of CD was evaluated by the complexation efficiency (CE) parameter. CE equal the complex to free CD concentration ratio and was calculated from the slope of the phase solubility diagram: […]
(§3) where [CD/PP] is the concentration of dissolved inclusion complex and [CD] is the concentration of dissolved free CD. The CE can be used to calculate the PP:CD ratio as follows:
(§4) The correlation between the CE and the molecular weight of CD or guest allowed the determination of the increase in formulation bulk which can be calculated using the following equation: […]
(§5) where MWCD and MWPP are the molecular weight values of CD and PP, respectively.

Data set [2] can be described thus: DPPH radical scavenging activity. The note with it: for Change of DPPH radical scavenging activity upon complexation with CDs: PP in 10 mM CD solution vs water; for Kinetic behavior of reaction with DPPH•: PP with ethanolic DPPH• solution; for DPPH radical scavenging (antioxidant) activity of PP alone: absence of CD, 1 h (3, 4, 6, 7) or 15 h (1, 2, 5), 25 °C. The method, then:
The 2,2-diphenyl-1-picrylhydrazyl (DPPH) radical scavenging activity of PP and their inclusion complexes was measured using the method described by Brand-Williams, Cuvelier, and Berset (1995) with some modifications. 1 mg of PP was dissolved in 50 mL of water, or 10 mM CD solution. 2 mL aliquot of the solution was vigorously mixed with 2 mL of ethanolic DPPH^• solution (0.1 mM). […]. Blank sample was prepared by mixing 2 mL of distilled water with 2 mL of DPPH^• solution. The scavenging activity was calculated using the following equation: […]
where As and A0 are the absorbance of sample and blank sample, respectively.
In general terms: Loss of DPPH colour is used to gauge radical scavenging.

A short description of data set [3]: Phase solubility studies, β-CD. The method, then:
as §1, §2, §3, §4, §5

The conditions of data set [4]: α-CD; ref 29; cited from earlier work.
The conditions of data set [5]: β-CD; ref 30; cited from earlier work.
The nature of data set [6]: Formation constants (Kf) by UV–visible spectral displacement method, CRYSMEB. Format: physicochemical. The note with it: UV–visible spectral displacement with MO (MO itself by direct titration), SD <10%. How it is done:
(§6) Formation constant (Kf) values were calculated using a UV–visible spectral displacement method. This method implies first the characterization of the inclusion complexes between CDs and the competitor (methyl orange, MO). The results are summarized in Table 1 in comparison with values from the literature.
(§7) The UV–visible competition method with methyl orange (MO) as competitor was carried out according to the method described by Landy et al.. In order to calculate CD/PP Kf values, CD/MO inclusion complexes were firstly characterized by a direct titration method. Then, a spectral displacement method was applied by adding PP to a solution containing constant concentration of MO and CD. The addition of PP implied an absorbance increment leading to the calculation of CD/PP Kf values. Spectra were recorded between 520–530 nm for a MO concentration fixed at 0.1 mM. This wavelength range corresponds to the optimal spectral variation between the absorbance of free and complexed forms of MO. All Kf values were calculated by an algorithmic treatment applied to the first derivatives of UV spectra in order to avoid any spectral influence of diffraction phenomena. Absorption studies were performed using a UV–visible dual-beam spectrophotometer (Perkin Elmer Lambda 2S) with a 1 cm thick quartz cuvette.

Data set [7] in a line: Formation constants (Kf) by UV–visible spectral displacement method, RAMEB. It is filed as physicochemical. As to conditions: UV–visible spectral displacement with MO (MO itself by direct titration), SD <10%. The method, then:
as §6, §7

For data set [8] the following is noted: HP-β-CD; ref 30; cited from earlier work.
Data set [9] can be described thus: Formation constants (Kf) by UV–visible spectral displacement method, HP-β-CD. It is filed as physicochemical. The note with it: UV–visible spectral displacement with MO (MO itself by direct titration), SD <10%. How it is done:
as §6, §7

Data set [10] can be described thus: Formation constants (Kf) by UV–visible spectral displacement method, β-CD. It is filed as physicochemical. The note with it: UV–visible spectral displacement with MO (MO itself by direct titration), SD <10%. How it is done:
as §6, §7

On the set-up of data set [11]: method as in earlier work. As to conditions: cited from earlier work.
Data set [12] in a line: Formation constants (Kf) by UV–visible spectral displacement method, α-CD. It is filed as physicochemical. The note with it: UV–visible spectral displacement with MO (MO itself by direct titration), SD <10%. The method, then:
as §6, §7

A short description of data set [13]: Phase solubility studies, HP-β-CD. How it is done:
as §1, §2, §3, §4, §5

The procedure of data set [14]: as §1, §2, §3, §4, §5
A short description of data set [15]: Phase solubility studies, RAMEB. How it is done: as §1, §2, §3, §4, §5

low methylated β-cyclodextrin [CRYSMEB] yielded a CE mean value in data set [1] of 1.21.
Turning to isoeugenol [Isoeugenol (3)], in [2], the “Change of DPPH radical scavenging activity upon complexation with CDs” value (shortened to “Change”) is “kept unchanged”, the “Kinetic behavior of reaction with DPPH•” value is “reacted rapidly” and the “DPPH radical scavenging (antioxidant) activity of PP alone” value (from here on “DPPH radical scavenging … of PP alone”) is recorded as “higher antioxidant activity”.
In turn, `OC[C@H]1O[C@@H]2O[C@H]3[C@H](O)[C@@H](O)[C@@H](O[C@H]4[C@H](O)[C@@H](O)[C@@H](O[C@H]5[C@H](O)[C@@H](O)[C@@H](O[C@H]6[C@H](O)[C@@H](O)[C@@H](O[C@H]7[C@H](O)[C@@H](O)[C@@H](O[C@H]8[C@H](O)[C@@H](O)[C@@H](O[C@H]1[C@H](O)[C@H]2O)O[C@@H]8CO)O[C@@H]7CO)O[C@@H]6CO)O[C@@H]5CO)O[C@@H]4CO)O[C@@H]3CO` [β-CD, β-cyclodextrin] gave a CE mean value in [3] of 0.91.
As for `COc1cc(/C=C/C(=O)O)ccc1O` [Ferulic acid (7), ferulic acid], the “Formation constant (Kf)” value in data set [4] is 1162 M⁻¹; in [5], 205 M⁻¹; in [6], 474 M⁻¹; in data set [7], 908 M⁻¹; in [8], 590 M⁻¹; in [9], 451 M⁻¹. For the same molecule, the figures for the “Formation constant (Kf)” value in data set [10] and in [12] were 246 M⁻¹ and 1769 M⁻¹, respectively. Also, the “Change” value in [2] is given as “kept unchanged”. Besides, in [2], the “Kinetic behavior of reaction with DPPH•” value was “reacted rapidly”. In addition, in [2], the “DPPH radical scavenging … of PP alone” value was “higher antioxidant activity”. Further, the log partition coefficient (log P) (commonly the decadic logarithm of the partition coefficient of the neutral form, usually between octanol and water) in [11] is reported as 1.249.
In turn, `CC(O)COC[C@H]1O[C@@H]2O[C@H]3[C@H](O)[C@@H](O)[C@@H](O[C@H]4[C@H](O)[C@@H](O)[C@@H](O[C@H]5[C@H](O)[C@@H](O)[C@@H](O[C@H]6[C@H](O)[C@@H](O)[C@@H](O[C@H]7[C@H](O)[C@@H](O)[C@@H](O[C@H]8[C@H](O)[C@@H](O)[C@@H](O[C@H]1[C@H](O)[C@H]2O)O[C@@H]8COCC(C)O)O[C@@H]7COCC(C)O)O[C@@H]6COCC(C)O)O[C@@H]5COCC(C)O)O[C@@H]4COCC(C)O)O[C@@H]3COCC(C)O` (stereo partly drawn) [HP-β-CD, hydroxypropyl-β-cyclodextrin] came in with a CE mean value in [13] (HP-β-CD, mean over the studied PPs) of 1.42.
Take `C=CCc1ccc(OC)cc1` [Estragole (2), estragole]: the “Increase in formulation bulk” value in data set [14] was 36; in data set [13], 32; in data set [3], 35; in data set [1], 25; in data set [15] it was 26. The Kf in data set [14] came out at 682 M⁻¹; in data set [13], 1412 M⁻¹; in data set [3] it was 882 M⁻¹; in data set [1], 1512 M⁻¹; in data set [15] it was 1694 M⁻¹. For the same molecule, the “Formation constant (Kf)” value in data set [6] was 1584 M⁻¹; in data set [7], 1916 M⁻¹; in [9], 1508 M⁻¹; in data set [10], 987 M⁻¹; in data set [12], 335 M⁻¹. The “Change” value in [2] is “increase in activity”. Further, the “Kinetic behavior of reaction with DPPH•” value in data set [2] is given as “slow kinetic behavior”. Further, in data set [2], the “DPPH radical scavenging … of PP alone” value was “reacted little”. Also, in data set [11], the “log P” value is recorded as 2.818.
For `CN(C)c1ccc(N=Nc2ccc(S(=O)(=O)[O-])cc2)cc1.[Na+]` [MO, methyl orange, reference compound], the “Formation constant (Kf)” value in data set [6] was 3594 M⁻¹; in data set [7], 15400 M⁻¹; in data set [9] it was 5597 M⁻¹; in [10] it was 2386 M⁻¹; in [12], 7810 M⁻¹.
“randomly methylated β-cyclodextrin [RAMEB]” came in with a CE mean value in data set [15] of 1.70.
